Measurements from EP3434287B1, “SHORT AND ULTRA-SHORT ANTIMICROBIAL LIPOPEPTIDES AND USE THEREOF” (Arta Peptidion S.r.l.s., priority 2017, dated 2019).
≈ marks a conversion by molar mass, not a printed value. Where “and” joins values, the source holds several entries; their conditions need not be identical. Equal entries are not always repeated. Where two headings read alike, the source gives them in different places. Residues, ends and D or L forms follow the SMILES beside them. *: point of attachment. Myristoyl = CCCCCCCCCCCCCC(=O)*; Lauroyl = CCCCCCCCCCCC(=O)*; Octanoyl = CCCCCCCC(=O)*; Hexanoyl = CCCCCC(=O)*

Assays:
C.albicans SC5314 = test: MIC against filamentous yeast strain, broth microdilution susceptibility test (NCCLS); type: cell-based; details: RPMI-1640, 30° C for 48 h
Procedure: (§1) The minimum inhibitory concentration values (MICs) of the lipopeptides and of conventional antibiotics were determined by the broth microdilution susceptibility test following the guidelines of the NCCLS with mid-log phase cultures. Serial two-fold dilutions of each peptide were prepared (final volume of 50 ul) in 96-well polypropylene microtiter plates (UNIFO, Treviso, Italy) RPMI-1640 for fungi. Each dilution series included con-trol wells without peptide. A total of 50 ul of the adjusted inoculum (approximately 5 × 10^5 cells/ml for bacteria or 5 × 10^4 cells/ml for fungi, in the appropriate medium) was added to each well. To evaluate the MIC, microtiter plates with bacteria were incubated at 37° C overnight, while those with fungi were incubated at 30° C for 48 h.
(§2) This example was performed on two different strain of C.albicans. Both strain are human clinical isolate recovered from a patient with generalized candidiasis.

E.coli = type: cell-based, Escherichia coli ATCC 25922
Procedure: (§3) The antimicrobial activity of a lipopeptide can be determined using a method known in the art, for example, the broth-dilution method. Essentially, this method involves the growth of a microorganism in a liquid medium until it reaches the logarithmic phase. The test lipopeptide is serially diluted with growth medium for the test bacterium in the wells of a multiwell plate. An optimal concentration of the microorganism is added to the wells containing the serially diluted lipopeptide. The plate is incubated in a thermostat at a temperature of 37° C. for a time sufficient for the microorganism to grow. The growth of the microorganism, evaluated in comparison with a negative control (microorganism grown in the absence of the lipopeptide), is determined by detecting the absorbance of the solution containing the bacterium, for example, at 605 nm.
as §1, with “Italy) with MH broth for bacteria and” for “Italy)”, “h. The fatty acid tested were: C6 (hexanoic),C8 (octanoic),C10 (decanoic),C12 (lauric),C14 (mystiric).” for “h.”
as §1, with “Italy) with MH broth for bacteria and” for “Italy)”, “control” for “con-trol”

S.aureus = type: cell-based, S. aureus (ATCC 25923)
Procedure: as §3
as §1, with “Italy) with MH broth for bacteria and” for “Italy)”, “h. The fatty acid tested were: C6 (hexanoic),C8 (octanoic),C10 (decanoic),C12 (lauric),C14 (mystiric).” for “h.”
as §1, with “Italy) with MH broth for bacteria and” for “Italy)”

P.aeruginosa = type: cell-based, Pseudomonas aeruginosa ATCC 27853
Procedure: as §3
as §1, with “Italy) with MH broth for bacteria and” for “Italy)”, “h. The fatty acid tested were: C6 (hexanoic),C8 (octanoic),C10 (decanoic),C12 (lauric),C14 (mystiric).” for “h.”
as §1, with “Italy) with MH broth for bacteria and” for “Italy)”, “control” for “con-trol”

Cytotoxicity, MTT assay = type: cell-based; details: human, A549 cells (lung cancer epithelial cell line), treated for 24-72 h, read-out: LC50 (the source's name)
Procedure: In the present invention, cytotoxicity of the lipopeptides against a epithelial cell line was also determined, for example, A549 cells (lung cancer). Cells were cultured in the presence and in the absence of peptides and the damage to the membrane was evaluated by the vital stain MTT.
The colorimetric 3-(4,5-dimethylthiazol-2-yl)-2,5-diphenyl tetrazolium bromide (MTT) assay was performed to assess the metabolic activity of cells plated into 96-well culture plates (10 5 cell/well) and treated with 0.5-25 µM of in complete medium for 24-72 h. At the end of treatments, fullerenes containing medium were removed and replaced with fresh medium; for the cytotoxic assay, 20 µL stock MTT (5 mg/mL) was added to each well, and cells were then incubated for 4 hr at 37 °C. The converted MTT dye was solubilised with acidic isopropanol (0.04 N HCl in absolute isopropanol). Absorbance was measured at 540 nm and 630 nm using a microplate reader (Automated Microplate Reader EL311, BIO-TEK Instruments, Vermont, USA). All measurements were done in triplicate and each experiment was repeated at least three times.

C. albicans ATCC 90029 = type: cell-based; details: RPMI-1640, 30° C for 48 h
Procedure: as §1, §2

[1] = Example 1, effect of fatty acid length on RFWR, MH broth, 37° C overnight

SMILES: CCCCCCCCCCCC(=O)N[C@@H](CCCNC(=N)N)C(=O)N[C@@H](CCSC)C(=O)N[C@@H](Cc1c[nH]c2ccccc12)C(=O)N[C@@H](CCCNC(=N)N)C(N)=O [Lipopeptide 8, Lau-RMWR-NH2] (Lauroyl-RMWR-NH2)
- MIC against C.albicans SC5314 strain (C.albicans SC5314): 12.5 µg/mL (≈ 15.1 µM)

SMILES: CCCCCCCCCCCCCC(=O)N[C@@H](CCCNC(=N)N)C(=O)N[C@@H](Cc1ccccc1)C(=O)N[C@@H](Cc1c[nH]c2ccccc12)C(=O)N[C@@H](CCCNC(=N)N)C(N)=O [Lipopeptide 5] (Myristoyl-RFWR-NH2)
- Bacteria (MIC, ug/ml) E.coli (E.coli): 25 µg/mL
- Bacteria (MIC, ug/ml) S.aureus (S.aureus): 6.125 µg/mL
- Bacteria (MIC, ug/ml) P.aeruginosa (P.aeruginosa): 50 µg/mL

SMILES: CCCCCCCC(=O)N[C@@H](CCCNC(=N)N)C(=O)N[C@@H](Cc1ccccc1)C(=O)N[C@@H](Cc1c[nH]c2ccccc12)C(=O)N[C@@H](CCCNC(=N)N)C(N)=O [Lipopeptide 2] (Octanoyl-RFWR-NH2)
- Bacteria (MIC, ug/ml) E.coli (E.coli): 100 µg/mL
- Bacteria (MIC, ug/ml) S.aureus (S.aureus): 100 µg/mL
- Bacteria (MIC, ug/ml) P.aeruginosa (P.aeruginosa): 100 µg/mL

SMILES: CCCCCCCCCCCC(=O)N[C@@H](CCCNC(=N)N)C(=O)N[C@@H](CCCNC(=N)N)C(=O)N[C@@H](Cc1ccccc1)C(=O)N[C@@H](Cc1c[nH]c2ccccc12)C(N)=O [Lipopeptide 14, Lau-RRFW-NH2] (Lauroyl-RRFW-NH2)
- MIC against C.albicans SC5314 strain (C.albicans SC5314): 12.5 µg/mL (≈ 14.8 µM)

SMILES: CCCCCCCCCCCC(=O)N[C@@H](CCCNC(=N)N)C(=O)N[C@@H](Cc1ccccc1)C(=O)N[C@@H](Cc1c[nH]c2ccccc12)C(=O)N[C@@H](CCCNC(=N)N)C(N)=O [Lipopeptide 4] (Lauroyl-RFWR-NH2)
- Bacteria (MIC, ug/ml) E.coli (E.coli): 12.5 µg/mL
- Bacteria (MIC, ug/ml) S.aureus (S.aureus): 3.125 µg/mL
- Bacteria (MIC, ug/ml) P.aeruginosa (P.aeruginosa): 12.5 µg/mL

SMILES: CCCCCCCCCCCC(=O)N[C@@H](CCCNC(=N)N)C(=O)N[C@H](C(=O)N[C@@H](Cc1c[nH]c2ccccc12)C(=O)N[C@@H](CCCNC(=N)N)C(N)=O)[C@@H](C)CC [Lipopeptide 6, Lau-RIWR-NH2] (Lauroyl-RIWR-NH2)
- MIC against E. coli (E.coli): 7.39 µM
- MIC against S.aureus (S.aureus): 1.77 µM (≈ 1.44 µg/mL)
- MIC against P. aeruginosa (P.aeruginosa): 14.7 µM
- MIC against P. aeruginosa (P.aeruginosa; MH broth, 37° C overnight): 12.5 µg/mL
- CC50 (Cytotoxicity, MTT assay): 100 µg/mL and ~118 µM
- MIC against C.albicans SC5314 strain (C.albicans SC5314): 12.5 µg/mL (≈ 15.4 µM)

SMILES: N=C(N)NCCC[C@H](NC(=O)[C@H](Cc1c[nH]c2ccccc12)NC(=O)[C@H](Cc1ccccc1)NC(=O)[C@@H](N)CCCNC(=N)N)C(N)=O [Lipopeptide 0] (H-RFWR-NH2; N-terminus and C-terminus assumed)
- Bacteria (MIC, ug/ml) E.coli (E.coli): >400 µg/mL
- Bacteria (MIC, ug/ml) S.aureus (S.aureus): >400 µg/mL
- Bacteria (MIC, ug/ml) P.aeruginosa (P.aeruginosa): >400 µg/mL

SMILES: CCCCCCCCCCCC(=O)N[C@@H](CCCNC(=N)N)C(=O)N[C@@H](Cc1ccccc1)C(=O)N[C@@H](Cc1c[nH]c2ccccc12)C(=O)N[C@@H](CCCNC(=N)N)C(N)=O [Lipopeptide 3, Lau-RFWR-NH2] (Lauroyl-RFWR-NH2)
- MIC against E. coli (E.coli): 7.39 µM
- Bacteria (MIC, ug/ml) E.coli (E.coli; [1]): 25 µg/mL
- MIC against S.aureus (S.aureus): 3.66 µM (≈ 3.09 µg/mL)
- Bacteria (MIC, ug/ml) S.aureus (S.aureus; [1]): 12.5 µg/mL
- MIC against P. aeruginosa (P.aeruginosa): 14.7 µM
- Bacteria (MIC, ug/ml) P.aeruginosa (P.aeruginosa; [1]): 50 µg/mL
- MIC against P. aeruginosa (P.aeruginosa; MH broth, 37° C overnight): 12.5 µg/mL
- CC50 (Cytotoxicity, MTT assay): 100 µg/mL and ~118 µM

SMILES: CCCCCCCCCCCC(=O)N[C@@H](CCCNC(=N)N)C(=O)N[C@@H](CCCNC(=N)N)C(=O)N[C@@H](Cc1ccccc1)C(=O)N[C@@H](Cc1c[nH]c2ccccc12)C(N)=O [Lipopeptide 14] (Lauroyl-RRFW-NH2)
- MIC against E. coli (E.coli): 14.7 µM
- MIC against E. coli (E.coli; MH broth, 37° C overnight): 12.5 µg/mL
- MIC against P. aeruginosa (P.aeruginosa): 14.7 µM
- MIC against P. aeruginosa (P.aeruginosa; MH broth, 37° C overnight): 12.5 µg/mL

SMILES: CCCCCCCCCCCC(=O)N[C@@H](CCCNC(=N)N)C(=O)N[C@@H](CCCNC(=N)N)C(=O)N[C@@H](Cc1ccccc1)C(=O)N[C@@H](Cc1c[nH]c2ccccc12)C(=O)N[C@@H](CCCNC(=N)N)C(=O)N[C@@H](CCCNC(=N)N)C(N)=O [Lipopeptide 16, Lau-RRFWRR-NH2] (Lauroyl-RRFWRR-NH2)
- MIC against C. albicans ATCC strain (C. albicans ATCC 90029): 1.56 µg/mL (≈ 1.35 µM)

SMILES: CCCCCC(=O)N[C@@H](CCCNC(=N)N)C(=O)N[C@@H](Cc1ccccc1)C(=O)N[C@@H](Cc1c[nH]c2ccccc12)C(=O)N[C@@H](CCCNC(=N)N)C(N)=O [Lipopeptide 1] (Hexanoyl-RFWR-NH2)
- Bacteria (MIC, ug/ml) E.coli (E.coli; [1]): >400 µg/mL
- Bacteria (MIC, ug/ml) S.aureus (S.aureus; [1]): >400 µg/mL
- Bacteria (MIC, ug/ml) P.aeruginosa (P.aeruginosa; [1]): >400 µg/mL
